# In PubChem BioAssay (NCI):
# “And” between values parts separate entries of the source, which are not always exact repeats. Equal values may be shown once.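 Five concentrations, 48 hours, 96-well plates. At the GI50, growth is halved. TGI: concentration producing complete growth inhibition.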
# Assays:
# Assay in all cases: DTP human tumour cell line panel, 48 h
# COLO 205 colon = tested on: COLO 205 colon
# HCC-2998 colon = tested on: HCC-2998 colon
# HCT-116 colon = tested on: HCT-116 colon
# HOP-92 NSCLC = tested on: HOP-92 NSCLC
# HT29 colon = tested on: HT29 colon
# IGROV1 ovarian = tested on: IGROV1 ovarian
# OVCAR-5 ovarian = tested on: OVCAR-5 ovarian
# SF-268 CNS = tested on: SF-268 CNS
# SNB-19 CNS = tested on: SNB-19 CNS
# SR leukemia = tested on: SR leukemia
Compound,GI50 (COLO 205 colon),TGI (COLO 205 colon),GI50 (HCC-2998 colon) [µM],TGI (HCC-2998 colon),GI50 (HCT-116 colon) [nM],TGI (HCT-116 colon),GI50 (HOP-92 NSCLC) [nM],TGI (HOP-92 NSCLC),GI50 (HT29 colon) [µM],TGI (HT29 colon),GI50 (IGROV1 ovarian) [µM],TGI (IGROV1 ovarian),GI50 (OVCAR-5 ovarian) [µM],TGI (OVCAR-5 ovarian) [µM],GI50 (SF-268 CNS) [µM],TGI (SF-268 CNS),GI50 (SNB-19 CNS) [µM],TGI (SNB-19 CNS),GI50 (SR leukemia) [nM],TGI (SR leukemia)
O=C(/C=C/C12c3ccccc3C(c3ccccc31)C1C(=O)NC(=O)C12)c1ccccc1 (stereo unspecified),2050 nM,4.03 µM,1.7,3.27 µM,1350,2.89 µM,1410,3.52 µM,3.25,11.9 µM,2.03,4.52 µM,2.01,4.83,2.17,6.55 µM,1.66,3.34 µM,1570,17.6 µM
Cc1cccc2c1[nH]c(=O)c1c3ccccc3cn21,7330 nM,34.8 µM,4.6,16.3 µM,2690,11.7 µM,3970,32.2 µM,2.16,13.1 µM,3.69,> 100 µM,17.9,65.4,3.03,8.49 µM,15.6,48 µM,1540,4.15 µM
CN(C)CCCNc1nc2ccccc2c2[nH]c3ccccc3c12,795 nM,10.1 µM,0.251,0.942 µM,222,1.67 µM,1260,3.83 µM,0.163,33 µM,1.39,18.4 µM,1.28,9.36,1.39,4.1 µM,1.57,6.2 µM,616,50 µM
CCC1=C(CC2NCCc3ccccc32)CC2c3cc(OC)c(OC)cc3CCN2C1 (stereo unspecified),1810 nM and 199 nM,4.13 µM and 0.547 µM,3.9,15.5 µM and 10.5 µM,2860,11.6 µM and 2.94 µM,1230,9.48 µM and 16.6 µM,3.31,11.8 µM and 4.53 µM,4.39,21.6 µM and 19 µM,6.15,,3.13,14 µM and 6.12 µM,3.6,13.7 µM and 11.9 µM,2860,8.77 µM and 3.89 µM
COC(=O)N[C@H]1CCc2c(Cl)c(OC)c(OC)c(OC)c2-c2ccc(SC)c(=O)cc21,< 10 nM,0.0303 µM,< 0.01,,< 10,,19.9,18.6 µM,< 0.01,> 94.8 µM,< 0.01,> 52.5 µM,< 0.01,> 94.8,< 0.01,> 100 µM,< 0.01,> 100 µM,< 10,> 66.6 µM
COc1ccc(S(=O)(=O)N(C(C)=O)c2ccccc2/C=C/c2cc[n+]([O-])cc2)cc1,529 nM,2.3 µM,2.27,> 10 µM,542,> 10 µM,,> 10 µM,0.422,> 10 µM,1.07,> 10 µM,3.26,> 10,1.71,> 10 µM,0.418,> 10 µM,230,> 10 µM
C=C1CCC2C3(C)COC(c4ccccc4Cl)OC3CCC2(C)C1/C=C/C1=CCOC1=O (stereo unspecified),17900 nM,> 100 µM,21.1,> 100 µM,4480,> 100 µM,1600,> 100 µM,5.43,> 100 µM,> 100,> 100 µM,> 100,> 100,> 100,> 100 µM,> 100,> 100 µM,3970,> 100 µM
O/N=C/c1ccc(O)c(O)c1,,> 100 µM,,> 100 µM,,> 100 µM,,> 100 µM,,> 100 µM,,> 100 µM,,> 100,,> 100 µM,,> 100 µM,,> 100 µM
CCOC(=O)/C=C/c1cccc(F)c1,,> 100 µM,,> 100 µM,,> 100 µM,,> 100 µM,,> 100 µM,,> 100 µM,,> 100,,> 100 µM,,> 100 µM,,> 100 µM
N#Cc1cc(S(=O)(=O)Nc2nc3ccccc3o2)c(SCc2ccccc2)cc1Cl,30600 nM,> 100 µM,19,34.3 µM,17800,38.6 µM,17400,34.2 µM,29.1,83.6 µM,22,54.8 µM,27,52,31.7,> 100 µM,20.9,56.1 µM,76500,> 100 µM
NC(Cc1ccccc1)c1nccs1 (stereo unspecified),,> 100 µM,,> 100 µM,,> 100 µM,,> 100 µM,,> 100 µM,,> 100 µM,,> 100,,> 100 µM,,> 100 µM,,> 100 µM
CNC(=O)c1cncc(/C=C/c2ccccc2Cl)c1,> 25000 nM,> 25 µM,> 25,> 25 µM,> 25000,> 25 µM,12600,> 25 µM,> 25,> 25 µM,> 25,> 25 µM,> 25,> 25,> 25,> 25 µM,> 25,> 25 µM,> 22900,> 25 µM
COc1cc2cnc3c4cc(OCc5ccccc5)ccc4ccc3c2cc1OC,,74.9 µM,,> 100 µM,,> 100 µM,,> 100 µM,,> 100 µM,,> 100 µM,,> 100,,> 100 µM,,> 100 µM,,27.1 µM
C[C@@H]1CC[C@@]2(NC1)O[C@H]1C[C@H]3[C@@H]4CC[C@H]5C[C@@H](O)CC[C@]5(C)[C@H]4CC[C@]3(C)[C@H]1[C@@H]2C,,> 100 µM,,> 100 µM,,> 100 µM,,> 100 µM,,> 100 µM,,> 100 µM,,> 100,,> 100 µM,,> 100 µM,,> 100 µM
O=C[C@@H](CO)O[C@H](C=O)n1cnc2c(=O)[nH]cnc21,,992 µM,,1200 µM,,1270 µM,,865 µM,,1910 µM,,1360 µM,,1820,,1840 µM,,2150 µM,,1210 µM
